Converted amounts (≈) assume the structure as drawn. Like-named read-outs stand apart in the source and are kept apart here.
Key:
human DHFR (hDHFR) = biological target: T1, human DHFR (hDHFR) (Homo sapiens, UniProt P00374); test: DHFR enzyme assay, Ki determination, human DHFR; type: biochemical; conditions: Table 3
T1 construct: result in the amplification of a 186 amino acid hDHFR coding region; made in house; host or cells: E. coli Top10
T1 sequence (P00374 1-187): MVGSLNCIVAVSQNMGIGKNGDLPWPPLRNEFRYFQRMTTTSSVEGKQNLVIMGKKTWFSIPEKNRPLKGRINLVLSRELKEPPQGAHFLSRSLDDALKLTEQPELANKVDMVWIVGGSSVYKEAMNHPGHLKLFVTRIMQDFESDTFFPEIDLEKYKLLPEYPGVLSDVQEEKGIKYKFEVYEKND
Description: The human DHFR cDNA was cloned by PCR from the Human Universal Quick-clone™ cDNA purchased from Clontech.
The PCR fragment was digested with restriction enzymes NdeI and HindIII, and then ligated into a derivative of the pKK223-3 expression vector (Amersham Pharmacia). The final expression vector (pFW96.2) was transformed into E. coli Top10 F40 and hDHFR protein was induced by the addition of 1 mM IPTG followed by incubation at 37° C. for 4 hrs. Recombinant human DHFR was purified based on a previously published procedure (2).
(§1) Dihydrofolic acid and NADPH were purchased from Sigma. Enzyme assays were adapted for microtitre format from a previously published procedure (2, 3). All assays were performed in a 250 μl volume in 96-well microtitre plates. Typical assays consisted of 20 nM DHFR (human or E. coli), 100 μM NADPH, and 50 μM dihydrofolic acid in 100 mM HEPES pH 8, 10 mM KCl, and 10 mM MgCl2. The assay was monitored spectrophotometrically for the conversion of NADPH to NADP+, which results in a decrease in absorbance at 340 nm.
(§2) Five microliters of inhibitor compound in DMSO was added to 120 μl of enzyme solution (40 nM DHFR and 200 μM NADPH). The reaction was initiated by the addition of 125 μl of 100 μM dihydrofolic acid. The final concentrations in the assay were 20 nM DHFR, 100 μM NADPH, 50 μM dihydrofolic acid, and a range of 500 μM to 20 nM inhibitor compound. The final DMSO concentration was 2% of the total volume. Reactions were monitored as described above.
V=(Vmax[S])/(Km(1+I/Ki)+[S]), where S=dihydrofolate, Km=Michaelis constant for dihydrofolate, I=inhibitor concentration.

S. pneumoniae = test: Microdilution antimicrobial susceptibility test (MIC); type: cell-based; conditions: Streptococcus pneumoniae; Table 2; 90% inhibition of growth
Description: (§3) Stock solutions of tested compounds were prepared in N,N-dimethylformamide (DMF) at a concentration of 5 mg/mL. Working solutions of the tested compounds were then prepared from the stock solutions, in Mueller-Hinton broth (MHB) with a starting concentration of 64 μg/mL.
(§4) Bacterial inocula were prepared from overnight culture (i.e., one fresh colony from agar plate in 5 ml MHB; H. influenzae was grown in MHB with the addition of yeast extract, haematin, and NAD), centrifuged 2×5 min/3000 rpm (for S. pneumoniae and H. influenzae, 2×10 min/3000 rpm), and dispensed in 5 ml of fresh MHB each time, such that the bacterial suspension is diluted to obtain 100 colony forming units (cfu) in a microplate well (100 μl total volume).
(§5) Microplate wells were filled with two-fold dilutions of test compound (50 μl), starting with 64 μg/ml. Wells were then filled with 50 μl of bacterial inoculum (final volume: 100 μl/well). The plates were incubated at 37° C. for 18-24 hours (S. pneumoniae was grown in a CO2-enriched atmosphere).

E. faecalis = test: as above; type: cell-based; conditions: Enterococcus faecalis; Table 2; 90% inhibition of growth
Description: as §3, §4, §5

M. catarrhalis = test: as above; type: cell-based; conditions: Moraxella catarrhalis; Table 2; 90% inhibition of growth
Description: as §3, §4, §5

H. influenzae = test: as above; type: cell-based; conditions: Haemophilus influenzae, read-out: MIC H. influenzae
Description: as §3, §4, §5

S. aureus [1] = test: as above; type: cell-based; conditions: Staphylococcus aureus; Table 2; 90% inhibition of growth; read-out: MIC S. aureus
Description: as §3, §4, §5

E. coli = test: as above; type: cell-based; conditions: Escherichia coli; Table 2; 90% inhibition of growth
Description: as §3, §4, §5

P. aeruginosa = test: as above; type: cell-based; conditions: Pseudomonas aeruginosa; Table 2; 90% inhibition of growth
Description: as §3, §4, §5

bacterial DHFR (bDHFR) = biological target: T2, bacterial DHFR (bDHFR) (Escherichia coli, UniProt P0ABQ4); test: DHFR enzyme assay, Ki determination, bacterial DHFR; type: biochemical, E. coli
T2 construct: gift of Eric Brown, McMaster University
Description: Human and Bacterial DHFR: E. coli DHFR was kindly provided by Eric Brown of MacMaster University.
as §1
as §2, with “The” for “Five microliters of inhibitor compound in DMSO was added to 120 μl of enzyme solution (40 nM DHFR and 200 μM NADPH). The”

S. cerevisiae = test: Microdilution susceptibility test (MIC), yeast as indicator of cytotoxicity; type: cell-based; conditions: Saccharomyces cerevisiae; Table 2; 90% inhibition of growth
Description: The following table of compounds of one aspect of the invention have potent antimicrobial activity against S. aureus bacteria and are anticipated to have physical-chemical properties similar to those of orally absorbed and bioavailable drugs and drug-like compounds. Antibacterial activity for a variety of bacterial species are shown (S. aureus, S. pneumoniae, E. faecalis, M. catarrhalis, and H. influenzae). The yeast cell (S. cerevisiae) in this panel of organisms is an indicator of potential cytotoxicity in mammalian cells.
as §3, §5

S. aureus [2] = test: S. aureus mouse septicaemia model; type: in vivo; conditions: administered orally; mouse protection model
Description: Systemic models of infection are described in the literature. The following conditions can be used to assay the compounds in this application. Bacteria are grown in Mueller-Hinton agar at 37° C. during 24 h. For each experiment, a bacterial suspension is prepared by inoculating 4-5 bacterial colonies onto Mueller-Hinton broth (MHB) and by incubating at 37° C. for 24 hours to yield approximately 10^9 CFU/ml. BalbC female mice are supplied by Charles River (Deutschland). Animals are infected by a single administration of an LD100 dose of bacterial culture suspension (1×10^8 CFU/100 μl per animal) in the tail vein. A careful clinical examination is made several times a day, and obvious clinical symptoms and mortality are recorded. Animals survival is observed for a period of 6 days. Azithromycin is dissolved in 0.5% methocel in saline solution and administered orally. Test compounds are micronized with mortar and pestle and then dissolved in methocel saline solution with 3% of DMF. The first dose is administered 30 minutes after infection, with following doses every 12 hours for 3 days.
In vivo Efficacy Testing—S. aureus Mouse Septicaemia Model.
Several compounds were tested in a S. aureus mouse protection models for efficacy. Two compounds, 25 and 62, protected 40% of treated animals from the lethal infection when administered orally.

[3] = Table 2, 90% inhibition of growth

Compound | Ki (human DHFR (hDHFR)) | MIC (S. pneumoniae) | MIC (E. faecalis) | MIC (M. catarrhalis) | MIC (H. influenzae; [3]) | MIC (S. aureus [1]) | MIC (E. coli) | MIC (P. aeruginosa) | Ki (bacterial DHFR (bDHFR); Table 3, read-out: bDHFR Ki) | MIC (S. cerevisiae) | treated animals protected from the lethal infection (S. aureus [2]) | Ki (bacterial DHFR (bDHFR); second part of table, read-out: bDHFR) | MIC (H. influenzae)
CN(Cc1cnc2nc(N)nc(N)c2n1)c1ccc(C(=O)NCc2ccncc2)cc1 [Compound 5] | 500 to 999 nM | 2 to 8 µg/mL (≈ 4.81 to 19.3 µM) | 2 to 8 µg/mL (≈ 4.81 to 19.3 µM) | 2 to 8 µg/mL (≈ 4.81 to 19.3 µM) | 2 to 8 µg/mL (≈ 4.81 to 19.3 µM) | 16 to 64 µg/mL (≈ 38.5 to 154 µM) | > 64 µg/mL | > 64 µg/mL | < 100 nM | > 64 µg/mL |  |  | 
Nc1nc(N)c2nc(CNc3ccc4nc(S)sc4c3)cnc2n1 [Compound 10] | > 5000 nM | 2 to 8 µg/mL (≈ 5.61 to 22.4 µM) | < 2 µg/mL | < 2 µg/mL | 16 to 64 µg/mL (≈ 44.9 to 180 µM) | 2 to 8 µg/mL (≈ 5.61 to 22.4 µM) | > 64 µg/mL | > 64 µg/mL | 100 to 499 nM | 16 to 64 µg/mL (≈ 44.9 to 180 µM) |  |  | 
Nc1nc(N)c2nc(CNc3cccc([N+](=O)[O-])c3)cnc2n1 [Compound 7] | > 5000 nM | < 2 µg/mL | < 2 µg/mL | < 2 µg/mL | < 2 µg/mL | < 2 µg/mL | > 64 µg/mL | > 64 µg/mL | 100 to 499 nM | > 64 µg/mL |  |  | 
CN(Cc1cnc2nc(N)nc(N)c2n1)c1ccccc1 [Compound 9] | > 5000 nM | < 2 µg/mL | < 2 µg/mL | 2 to 8 µg/mL (≈ 7.11 to 28.4 µM) | < 2 µg/mL | 2 to 8 µg/mL (≈ 7.11 to 28.4 µM) | > 64 µg/mL | > 64 µg/mL | 100 to 499 nM | > 64 µg/mL |  |  | 
Nc1nc(N)c2nc(CNc3ccc([N+](=O)[O-])cc3O)cnc2n1 [Compound 12] | 1000 to 5000 nM | < 2 µg/mL |  | 16 to 64 µg/mL (≈ 48.7 to 195 µM) | 2 to 8 µg/mL (≈ 6.09 to 24.4 µM) | > 64 µg/mL | > 64 µg/mL | > 64 µg/mL | 100 to 499 nM | > 64 µg/mL |  |  | 
Cc1ccc(C(C)N(C)c2ncc3c(N)nc(N)nc3n2)c2ccccc12 (centres unmarked) [Compound 62] |  |  |  |  |  |  |  |  |  |  | 40% | 802 nM | 
Nc1nc(N)c2nc(CNc3cc(Cl)cc(Cl)c3)cnc2n1 [Compound 11] | > 5000 nM | < 2 µg/mL | < 2 µg/mL | < 2 µg/mL |  | < 2 µg/mL | > 64 µg/mL | > 64 µg/mL | 500 to 999 nM | > 64 µg/mL |  |  | > 64 µg/mL
Nc1nc(N)c2nc(CNc3ccc4c(c3)OCO4)cnc2n1 [Compound 8] | > 5000 nM | 2 to 8 µg/mL (≈ 6.42 to 25.7 µM) | 2 to 8 µg/mL (≈ 6.42 to 25.7 µM) | 2 to 8 µg/mL (≈ 6.42 to 25.7 µM) | 2 to 8 µg/mL (≈ 6.42 to 25.7 µM) | 2 to 8 µg/mL (≈ 6.42 to 25.7 µM) | > 64 µg/mL | > 64 µg/mL | 1000 to 5000 nM | > 64 µg/mL |  |  | 

From patent US20030176436A1, “Novel heterocyclic compounds as selective bacterial DHFR inhibitors and their uses thereof” (priority 2001, published 2003)
